According to patent US12133851B2, “Treatment of cholangiocarcinoma” (Janssen Pharmaceutica NV, priority 2018, dated 2024):
Read-outs that look alike come from different tables or passages of the source.

Key:
[1] = LUC2001 (NCT02699606): pharmacokinetics and PK/PD (serum phosphate); type: in vivo, human
Protocol: Pharmacodynamic and safety: Serum phosphate concentration was continuously monitored as a pharmacodynamic endpoint during the study to facilitate dose adjustment per protocol specification. Serum phosphate was measured on cycle 1 day 14 for pharmacodynamic uptitration. On study, serum phosphate concentration was set to be below 7 mg/dL in order to avoid prolonged hyperphosphatemia.
Post hoc visual predictive check was performed on an existing population PK model, built with data from 373 patients with various tumor types (majority were caucasians).
Post hoc visual predictive check was performed on serum phosphate concentration data based on an existing population PK/PD model.

[2] = test system: patients with FGFR-aberrant cholangiocarcinoma
[3] = test system: advanced cholangiocarcinoma subjects with FGFR alterations
Protocol: Tumor assessments: Conducted every 8 (±1) weeks up to 1 year from start of study drug, then every 12 (±1) weeks thereafter until the patient dies, or withdrawal of consent or conclusion of the study, whichever occurs first.
ORR (complete response [CR] or partial response [PR]) and disease control rate (DCR) was calculated with 95% CI.
PFS was represented with descriptive summary statistics; Kaplan-Meier method was used for evaluation.

[4] = as of 20 Aug. 2018, 11 patients
[5] = conclusion of snapshot 20 Mar. 2018
[6] = snapshot as of 20 Mar. 2018, 8 mg qd
[7] = snapshot as of 20 Mar. 2018, 11 subjects, 8 mg qd
[8] = median follow-up 5.5 mo, 11 patients
[9] = of the 3 partial responses among 11 patients
[10] = as of 20 Aug. 2018, FGFR2 fusion
[11] = as of 20 Aug. 2018, patients with FGFR2 alteration (n=9)
[12] = snapshot as of 20 Mar. 2018, 11 response evaluable, 8 mg qd

COc1cc(OC)cc(N(CCNC(C)C)c2ccc3ncc(-c4cnn(C)c4)nc3c2)c1 [erdafitinib, N-(3,5-dimethoxy-phenyl)-N′-(1-methylethyl)-N-[3-(1-methyl-1H-pyrazol-4-yl)quinoxalin-6-yl]ethane-1,2-diamine]
Drug-related TEAE Alanine aminotransferase increased, Any grade (Erdafitinib 8 mg (QD), N = 11): 2 N | Drug-related TEAE Aspartate aminotransferase increased, Any grade (Erdafitinib 8 mg (QD), N = 11): 2 N | Drug-related TEAE Constipation, Any grade (Erdafitinib 8 mg (QD), N = 11): 3 N | Drug-related TEAE Decreased appetite, Any grade (Erdafitinib 8 mg (QD), N = 11): 3 N | Drug-related TEAE Diarrhoea, Any grade (Erdafitinib 8 mg (QD), N = 11): 3 N | Drug-related TEAE Dry eye, Any grade (Erdafitinib 8 mg (QD), N = 11): 2 N | Drug-related TEAE Dry mouth, Any grade (Erdafitinib 8 mg (QD), N = 11): 8 N | Drug-related TEAE Dry mouth, ≥Grade 3 (Erdafitinib 8 mg (QD), N = 11): 1 N | Drug-related TEAE Dry skin, Any grade (Erdafitinib 8 mg (QD), N = 11): 5 N | Drug-related TEAE Dry skin, ≥Grade 3 (Erdafitinib 8 mg (QD), N = 11): 1 N | Drug-related TEAE Hyperphosphataemia, Any grade (Erdafitinib 8 mg (QD), N = 11): 10 N | Drug-related TEAE Hyponatremia, Any grade (Erdafitinib 8 mg (QD), N = 11): 1 N | Drug-related TEAE Hyponatremia, ≥Grade 3 (Erdafitinib 8 mg (QD), N = 11): 1 N | Drug-related TEAE Nail disorder, Any grade (Erdafitinib 8 mg (QD), N = 11): 4 N | Drug-related TEAE Nail disorder, ≥Grade 3 (Erdafitinib 8 mg (QD), N = 11): 1 N | Drug-related TEAE Nausea, Any grade (Erdafitinib 8 mg (QD), N = 11): 2 N | Drug-related TEAE Onycholysis, Any grade (Erdafitinib 8 mg (QD), N = 11): 1 N | Drug-related TEAE Onycholysis, ≥Grade 3 (Erdafitinib 8 mg (QD), N = 11): 1 N | Drug-related TEAE Onychomycosis, Any grade (Erdafitinib 8 mg (QD), N = 11): 2 N | Drug-related TEAE Palmar-plantar erythrodysaesthesia syndrome, Any grade (Erdafitinib 8 mg (QD), N = 11): 4 N | Drug-related TEAE Paronychia, Any grade (Erdafitinib 8 mg (QD), N = 11): 3 N | Drug-related TEAE Paronychia, ≥Grade 3 (Erdafitinib 8 mg (QD), N = 11): 1 N | Drug-related TEAE Punctate keratitis, Any grade (Erdafitinib 8 mg (QD), N = 11): 2 N | Drug-related TEAE Stomatitis, Any grade (Erdafitinib 8 mg (QD), N = 11): 8 N | Drug-related TEAE Stomatitis, ≥Grade 3 (Erdafitinib 8 mg (QD), N = 11): 2 N | Patients with drug-related TEAEs, Any grade (Erdafitinib 8 mg (QD), N = 11): 11 N | Patients with drug-related TEAEs, ≥Grade 3 (Erdafitinib 8 mg (QD), N = 11): 6 N | patients reporting Grade 3 or higher TEAEs (as of 20 Aug. 2018, 8 mg once daily): 6/11 | AE leading to treatment discontinuation or death [4]: no AE | most common TEAEs [4]: hyperphosphatemia, dry mouth, stomatitis, dry skin, nail disorder, and palmar-plantar erythrodysaesthesia syndrome | patients who experienced drug-related TEAEs (as of 20 Aug. 2018, 11 patients, 8 mg once daily): All patients | Serious TEAEs (not drug-related) (as of 20 Aug. 2018, of 11 (27.3%), upper gastrointestinal haemorrhage, pyelonephritis acute, pathological fracture, n=1 each): 3 patients | Drug-related TEAEs leading to dose reduction (as of 20 Aug. 2018, of 11 patients (45.5%)): 5 patients | Grade 3 or higher drug-related TEAEs (as of 20 Aug. 2018, of 11 patients (54.5%)): Six | drug-related TEAEs leading to dose interruption (as of 20 Aug. 2018, of 11 patients (100%)): 11 patients | safety profile in patients with FGFR-aberrant advanced cholangiocarcinoma [5]: tolerable safety profile | AE diarrhea (subjects) [6]: 4/11 | AE dry mouth (subjects) [6]: 7/11 | AE hyperphosphatemia (subjects) [6]: 8/11 | AE nail disorder (subjects) [6]: 4/11 | AE palmar-plantar erythrodysaesthesia syndrome (subjects) [6]: 4/11 | AE stomatitis (subjects) [6]: 7/11 | AE leading to treatment discontinuation or death [7]: no AE | drug related SAE [7]: no drug related SAE | subjects who experienced AEs [7]: All subjects | subjects who experienced Grade 3 or worse AEs [7]: 7 | subjects who experienced serious AEs (SAEs) [7]: 3 | subjects with AEs leading to dose reduction [7]: 3 | subjects with AEs leading to drug interruption [7]: all | results of PK and PK/PD relationship in Asian patients with advanced CCA ([1]; as of 20 Aug. 2018, post hoc visual predictive check on population PK and PK/PD models): consistent with that known from patients with other types of solid tumor and different ethnic background | PK characteristics [1, 5]: consistent with data from other erdafitinib studies | objective response rate ([2]; 9 mg QD or 10 mg intermittent, all responses at 10 mg intermittent): 27.3% | partial responses (number of patients) ([2]; 11 patients with FGFR-aberrant cholangiocarcinoma, 9 mg QD (n=1) or 10 mg intermittent (n=10)): 3 | Overall disease control rate, including stable disease ([2]; 11 patients, 9 mg QD or 10 mg intermittent, 6/11): 54.5% | 6-mo progression-free survival rate [2, 8]: 36% | 9-mo progression-free survival rate [2, 8]: 24% | Median progression-free survival ([2]; median follow-up 5.5 mo, 95% CI 1.6 to 11.8 mo): 5.1 mo | partial responses in patients with fusion FGFR2-BICC1 [2, 9]: 1 | partial responses in patients with fusion FGFR2-CCAR1 [2, 9]: 1 | ORR - Objective Response Rate (CR+PR) ([3]; as of 20 Aug. 2018, 11 response evaluable, 8 mg once daily, n=5, 95% CI 16.7;76.6): 45.5% | ORR (CR+PR+uCR+uPR) ([3]; as of 20 Aug. 2018, 11 response evaluable, 8 mg once daily, n=6, 95% CI 23.4;83.3): 54.5% | Disease Control Rate-DCR (CR+PR+SD) ([3]; as of 20 Aug. 2018, 11 response evaluable, 8 mg once daily, n=8, 95% CI 39.0;94.0): 72.7% | DCR (CR+PR+uCR+uPR+SD) ([3]; as of 20 Aug. 2018, 11 response evaluable, 8 mg once daily, n=9, 95% CI 48.2;97.7): 81.8% | 9-months PFS rate ([3]; as of 20 Aug. 2018, 95% CI 11, 68): 40% | stable disease (SD), number of patients [3, 10]: 3 | unconfirmed PR, number of patients [3, 10]: 1 | confirmed PR, number of patients ([3]; as of 20 Aug. 2018, all FGFR2 alteration (1 mutation and 4 fusions)): 5 | progressive disease (PD), number of patients ([3]; as of 20 Aug. 2018, both with FGFR3 mutations and concurrent KRAS mutations): 2 | 9-months PFS rate [3, 11]: 49% | DCR [3, 11]: 100% | ORR (CR+PR+uCR+uPR) [3, 11]: 66.7% | maximum tumor shrinkage ([3]; one PR patient with a FGFR2-KIAA1598 fusion): −46.2% | DCR (CR+PR+uCR+uPR+SD) [3, 12]: 81.8% | ORR (CR+PR+uCR+uPR) [3, 12]: 45.5% | PD, number of subjects [3, 12]: 2 | partial response (PR), number of subjects [3, 12]: 3 | stable disease (SD), number of subjects [3, 12]: 4 | unconfirmed PR (uPR), number of subjects [3, 12]: 2
